How the values were obtained:
[1] = system: NIH3t3: LSL-eGFP cells; experiment: Cre recombination assay; format: cell-based, mouse; details: drug pre-treatment and co-treatment (FIG. 17a-d)
[2] = system: NIH3t3 cells; experiment: Fluorescence delivery assay with membrane depletion, GAG competition, Heparinase, serum or Sodium Chlorate; format: cell-based, mouse; details: for effect on cell-surface binding and transduction of HETD proteins: free GAG competition (FIG. 3b); for inhibition of PTD-only protein transduction: free GAG competition (FIG. 12)
Description: For flow cytometry, cells were trypsinized (unless otherwise stated), fixed in 4% (w/v) PFA, resuspended in PBS (pH7.5) and analysed on a MoFlo™ DP (DAKO) Flow Cytometer using a 488 nm […] laser. (50,000 cells; gated on live cells by forward/side scatter). Median fluorescence was used for statistical analyses with background from unlabelled/transduced cells subtracted and values taken as ratios to the experimental control. Data shown are three experiments of triplicate samples. For microscopy, cultures were rinsed twice with PBS and imaged with inverted fluorescence microscope (Nikon Eclipse TS100).
For testing multiple cell lines we plated 2=10^5 cells/well (in 12-well plates) onto the surface relevant to the tested cell line, attached cells for 2 hours and transduced with recombinant proteins in cell-type specific growth media. After transduction cells were washed with PBS, trypsinized and fixed in 4% PFA for flow cytometry. For membrane localization, intracellular localisation or both we plated cells as above, but cultures pre-incubated in serum-free media for 1 hour before transduction. Membrane localization to assess cell interaction was achieved by a short transduction of 1 hour in serum-free media. Intracellular localization to assess transduction efficiency was achieved by a short transduction of 1 hour followed by 5 hour incubation in serum-free media only. Cell association (membrane and intracellular levels) were assessed by transducing cells for 6 hours in serum-free medium. For flow cytometry cells were trypsinized, washed and fixed in 4% PFA and for microscopy cells were imaged live after washing in PBS. For trypsin depletion of cell-surface proteins, cells were treated with trypsin/EDTA (Invitrogen) or EDTA-based cell dissociation solution (CDS) (Sigma) for 15 minutes at 37° C., followed by washes with PBS and 1× soybean trypsin inhibitor (10 mg/ml in PBS; Sigma). Cells were then treated with proteins for 1 hour at 37° C. in serum-free medium. For detergent depletion of cell membranes, cells were treated with PBS (pH7.5) containing 0.1% (v/v) Triton-X100 (Tx100) for 10 minutes at 37° C., followed by washes with PBS. Cells were then treated with proteins for 1 hour at 37° C. in serum-free medium. For GAG-treatment cells were pre-treated with GAGs in DMEM without serum before transduction and were included in the transduction media. This included heparin and chondroitin sulphate A, B and C (0-50 μg/ml).
For Heparin binding activity we incubated 1 ml of recombinant proteins (20 μg/ml) in DMEM with 50 μl of PBS-washed Heparin-sepharose beads (Sigma) for 1 hour at 37° C. shaking at 100 rpm. Media pre- and post-incubation was compared by fluorometry. For Heparinase treatment, we plated NIH3t3 cells at 2×10^5/well (in 12-well plates) and were pre-incubated in serum-free media for 1 hour with Heparinase III (0-1 U/ml) or Heparin (0-50 μg/ml). Cells were then washed and transduced with mR or P21-mR-8R (20 μg/ml in serum-free media or media with different FCS concentrations) containing Heparinase III or Heparin for 12 hours. FCS was depleted of P21-binding material by affinity chromatography. This was achieved by incubating 50 ml FCS with 2 ml Glutathione-Sepharose resin (GE Healthcare) pre-absorbed with GST-P21 protein expressed in Escherichia coli.

[3] = system: NIH 3t3 fibroblast cells; experiment: Iron oxide nanoparticle uptake (Prussian blue, iron assay); format: cell-based
Method: Confluent cells were split into 12 well plates at 200,000 cells/well and incubated for 24 hours at 37° C. After 24 hours 50 μg of Nanomag-D iron oxide nanoparticles (250 nm) and either 0, 0.01, 0.05, 0.1, 0.5, 2, 1, 5 and 10 μM of cell penetrating peptide were added to the cells with either 10% FCS DMEM or serum free DMEM media and left for 24 hours for iron nanoparticles to be internalised. After incubation cells were washed in PBS to remove excess nanoparticles then harvested for qualitative Prussian blue staining, quantitative colorimetric iron assay or fluorescence activated flow cytometry.
Cells were labelled then fixed in 4% (w/v) PFA for 15-20 minutes at 4° C. A staining solution of 2.5% potassium ferrocyanide in 2.5% HCL was added to cells and incubated for an hour at room temperature. If nanoparticles were present a blue stain appeared which is proportional to the concentration of iron.
Quantitative Colorimetric Iron Assay Cells were labelled, trypsinised and pelleted then all media removed. 40 μl of 37% HCL was added to the cells and heated at 70° C. until dissolved, then neutralised with 50 μl of NaOH. Those samples containing a high concentration of iron were diluted 1:10 then 40 μl of Quantichrom working reagent was added and the instructions in the Quantichrom iron assay followed.

N=C(N)NC(=O)c1nc(Cl)c(N)nc1N [Amiloride]
effect on functional delivery of HETD-tagged Cre [1]: dose-dependent reduction

C=C1[C@@H](C)[C@H]2[C@H](Cc3ccccc3)NC(=O)[C@]23[C@H](OC(C)=O)/C=C/[C@@](C)(O)C(=O)[C@@H](C)C/C=C/[C@H]3[C@@H]1O [Cytochalasin D]
effect on functional delivery of HETD-tagged Cre [1]: dose-dependent reduction

[Na+].[O-][Cl+2]([O-])[O-] [Sodium Chlorate]
prevention of HETD-mediated protein delivery ([2]; inhibitor of HS synthesis (FIG. 14)): ~7.6 fold

C[C@@H]1[C@H](O)[C@@H](C)/C=C/C=C/CC/C=C/C=C/C=C/C=C/C(O[C@H]2O[C@H](C)[C@@H](O)[C@H](N)[C@@H]2O)CC2O[C@](O)(CC(O)C(O)CCC(O)CC(O)CC(O)CC(=O)O[C@H]1C)CC(O)C2C(=O)O (stereo partly drawn) [nystatin]
effect on functional delivery of HETD-tagged Cre [1]: dose-dependent inhibition

Chondroitin sulphate [CS-A]
effect on cell-surface binding and transduction of HETD proteins [2]: little effect

Chondroitin sulphate [CS-B]
effect on cell-surface binding and transduction of HETD proteins [2]: little effect
inhibition of PTD-only protein transduction [2]: 2.4 fold

Chondroitin sulphate [CS-C]
effect on cell-surface binding and transduction of HETD proteins [2]: little effect
inhibition of PTD-only protein transduction [2]: 4.1 fold

Heparin
inhibition of PTD-only protein transduction [2]: 8.1 fold
inhibition of transduction of HETD proteins ([2]; free GAG in media, P21-mR-8R 20 μg/ml (FIG. 3)): 99.8±2.1%
effect on P21 binding and nanoparticle uptake ([3]; added to media): inhibitor for the binding

Methyl-β-cyclodextrin [methyl-b-cyclodextrin]
effect on functional delivery of HETD-tagged Cre [1]: dose-dependent inhibition

dextran
decrease in nanoparticle uptake ([3]; increasing concentration added to media, 1 μM P218R): 18%

B1: heparinase III: HS-lyase enzyme (protein, UniProt Q59289 25-659, looked up)
Heparin-sulfate lyase: QSSSITRKDFDHINLEYSGLEKVNKAVAAGNYDDAAKALLAYYREKSKAREPDFSNAEKPADIRQPIDKVTREMADKALVHQFQPHKGYGYFDYGKDINWQMWPVKDNEVRWQLHRVKWWQAMALVYHATGDEKYAREWVYQYSDWARKNPLGLSQDNDKFVWRPLEVSDRVQSLPPTFSLFVNSPAFTPAFLMEFLNSYHQQADYLSTHYAEQGNHRLFEAQRNLFAGVSFPEFKDSPRWRQTGISVLNTEIKKQVYADGMQFELSPIYHVAAIDIFLKAYGSAKRVNLEKEFPQSYVQTVENMIMALISISLPDYNTPMFGDSWITDKNFRMAQFASWARVFPANQAIKYFATDGKQGKAPNFLSKALSNAGFYTFRSGWDKNATVMVLKASPPGEFHAQPDNGTFELFIKGRNFTPDAGVFVYSGDEAIMKLRNWYRQTRIHSTLTLDNQNMVITKARQNKWETGNNLDVLTYTNPSYPNLDHQRSVLFINKKYFLVIDRAIGEATGNLGVHWQLKEDSNPVFDKTKNRVYTTYRDGNNLMIQSLNADRTSLNEEEGKVSYVYNKELKRPAFVFEKPKKNAGTQNFVSIVYPYDGQKAPEISIRENKGNDFEKGKLNLTLTINGKQQLVLVP
inhibition of GET/HETD-mediated transduction ([2]; at 1 U/ml, 6 h protocol): 97.2±3.4%
